Converted amounts (≈) assume the structure as drawn.
Assays:
Assay in all cases: Minimum Inhibitory Concentration (MIC), broth serial dilution
Type in all cases: cell-based
[1] = tested on: Aspergillus niger; conditions: 168 h; E=Aspergillus niger; Sabouraud Dextrose Broth, 10^5 cells or spores/ml, 28°C, molds incubated seven days
Description: (§1) Solutions of the experimental compounds in dimethyl sulfoxide were serially diluted in nutrient broth (Tryptic Soy Broth for bacteria and Sabouraud Dextrose Broth for fungi) in microliter plates. Equal volumes of a broth suspension of bacteria (10^6 CFU/ml) or fungi (10^5 cells or spores/ml) were added to each dilution, and the plates were incubated at 37°C (bacteria and yeast) or 28°C (molds). Bacteria, yeast and molds were incubated two, five and seven days respectively before determining the highest inhibitory dilution.

[2] = tested on: Fusarium sp.; conditions: 168 h; D=Fusarium sp.; Sabouraud Dextrose Broth, 10^5 cells or spores/ml, 28°C, molds incubated seven days
Description: as §1

[3] = tested on: Aureobasidium pullulans; conditions: F=Aureobasidium pullulans; Sabouraud Dextrose Broth, 10^5 cells or spores/ml
Description: as §1

[4] = tested on: Staphylococcus aureus; conditions: 48 h; B=Staphylococcus aureus; Tryptic Soy Broth, 10^6 CFU/ml, 37°C, bacteria incubated two days
Description: as §1

[5] = tested on: Candida albicans; conditions: 120 h; C=Candida albicans; Sabouraud Dextrose Broth, 10^5 cells or spores/ml, 37°C, yeast incubated five days
Description: as §1

[6] = tested on: Escherichia coli; conditions: 48 h; A=Escherichia coli; Tryptic Soy Broth, 10^6 CFU/ml, 37°C, bacteria incubated two days
Description: as §1

Row | Structure (SMILES) | MIC [1] [µg/mL] | MIC [2] [µg/mL] | MIC [3] [µg/mL] | MIC [4] [µg/mL] | MIC [5] [µg/mL] | MIC [6] [µg/mL]
1 | CC(CCOc1cccc(=O)n1O)CC(C)(C)C (stereo not drawn) [Example 1, 1-Hydroxy-6-(3,5,5-trimethylhexyloxy)-pyridine-2(1H)-one] | 16 (≈ 63.2 µM) | 2 (≈ 7.89 µM) | 2 (≈ 7.89 µM) | 32 (≈ 126 µM) | 2 (≈ 7.89 µM) | 32 (≈ 126 µM)
2 | CCCCCCCCOc1cccc(=O)n1O [Example 2, 1-Hydroxy-6-octyloxypyridine-2(1H)-one] | 32 (≈ 134 µM) | 2 (≈ 8.36 µM) | 4 (≈ 16.7 µM) | 16 (≈ 66.9 µM) | 4 (≈ 16.7 µM) | 32 (≈ 134 µM)
3 | CCCCCCCCOc1cccc(=S)n1O [Example 3, 1-hydroxy-6-octyloxypyridine-2(1H)-thione] | 8 (≈ 31.3 µM) | 4 (≈ 15.7 µM) | 16 (≈ 62.7 µM) | 16 (≈ 62.7 µM) | 4 (≈ 15.7 µM) | 16 (≈ 62.7 µM)
4 | Cc1cc(CC(C)CC(C)(C)C)n(O)c(=O)c1 (stereo not drawn) [OCTOPIROX® biocide, reference compound] | 2 (≈ 8.43 µM) | 2 (≈ 8.43 µM) | 16 to 32 (≈ 67.4 to 135 µM) | 64 (≈ 270 µM) | 2 (≈ 8.43 µM) | 128 (≈ 539 µM)

— EP0724571B1, “SUBSTITUTED PYRIDINE-2-ONES AND SUBSTITUTED PYRIDINE-2-THIONES AS BIOCIDES” (Arch Chemicals, Inc., priority 1993, dated 1995)
